Where a name gives a salt, the structure may show the parent alone. Read-outs that look alike come from different tables or passages of the source.
Experiments:
Format in all cases: cell-based, human
[1] = system: MCF7 (Mammary Gland, Adenocarcinoma); test: Cell viability analysis, breast cancer MCF7; conditions: Homo sapiens, MCF7, 72 h
[2] = system: A375 (Amelanotic Melanoma); test: Cell viability analysis, skin cancer A375; conditions: for viability at 10 µM: Homo sapiens, A-375, 72 h
[3] = system: A549 (Lung Adenocarcinoma); test: Cell viability analysis, lung cancer A549; conditions: for viability at 10 µM: Homo sapiens, A549, 72 h
[4] = system: LoVo (Colorectal Adenocarcinoma); test: Cell viability analysis, colon cancer LoVo; conditions: 72 h; for viability at 10 µM: Homo sapiens, LoVo
[5] = system: HL-60 (Acute Promyelocytic Leukemia); test: Cell viability analysis, leukemia HL-60; conditions: Homo sapiens, HL-60, 72 h
[6] = system: MKN-45 (Gastric Adenocarcinoma); test: Cell viability analysis, gastric cancer MKN-45; conditions: for viability at 10 µM: Homo sapiens, MKN-45, 72 h
[7] = system: PC3 (p53−) (Prostate Adenocarcinoma); test: Cell viability analysis, prostate cancer PC3; conditions: 72 h; for viability at 10 µM: Homo sapiens
[8] = system: AGS (Gastric Adenocarcinoma); test: Cell viability analysis, gastric cancer AGS; conditions: Homo sapiens, 72 h
[9] = system: HepG2 (Hepatocellular Carcinoma); test: Cell viability analysis, hepatic cancer HepG2; conditions: Homo sapiens, HepG2, 72 h
cancer cell lines = test: Cell viability analysis (WST-1) on cancer cell lines; conditions: drug 10 μM, 72 hours, WST-1; Table 3
[10] = system: HeLa (Cervix Adenocarcinoma); test: Cell viability analysis, cervical cancer HeLa; conditions: Homo sapiens, HeLa, 72 h
[11] = system: HI650 (Lung Adenocarcinoma); test: Cell viability analysis, lung cancer HI650; conditions: Homo sapiens, NCI-H1650, 72 h
[12] = system: TSGH-8301 (Urinary Bladder Carcinoma); test: Cell viability analysis, bladder cancer TSGH-8301; conditions: 72 h; for viability at 10 µM: Homo sapiens
[13] = read-out: cell viability (survival rate), MCF7, drug 10 μM, 72 hours, WST-1, OD450 nm
[14] = read-out: cell viability (survival rate), A375, drug 10 μM, 72 hours, WST-1, OD450 nm
[15] = read-out: cell viability (survival rate), A549, drug 10 μM, 72 hours, WST-1, OD450 nm
[16] = read-out: cell viability (survival rate), LoVo, drug 10 μM, 72 hours, WST-1, OD450 nm
[17] = read-out: cell viability (survival rate), HL-60, drug 10 μM, 72 hours, WST-1, OD450 nm
[18] = read-out: cell viability (survival rate), MKN-45, drug 10 μM, 72 hours, WST-1, OD450 nm
[19] = read-out: cell viability (survival rate), PC3, drug 10 μM, 72 hours, WST-1, OD450 nm
[20] = read-out: cell viability (survival rate), AGS, drug 10 μM, 72 hours, WST-1, OD450 nm
[21] = read-out: cell viability (survival rate), HepG2, drug 10 μM, 72 hours, WST-1, OD450 nm
[22] = read-out: cell viability (survival rate), HeLa, drug 10 μM, 72 hours, WST-1, OD450 nm
[23] = read-out: cell viability (survival rate), H1650, drug 10 μM, 72 hours, WST-1, OD450 nm
[24] = read-out: cell viability (survival rate), TSGH, drug 10 μM, 72 hours, WST-1, OD450 nm
[25] = drug 10 μM, 72 hours, WST-1, OD450 nm, read-out: cell viability (survival rate), MCF7
[26] = drug 10 μM, 72 hours, WST-1, OD450 nm, read-out: cell viability (survival rate), A375
[27] = drug 10 μM, 72 hours, WST-1, OD450 nm, read-out: cell viability (survival rate), A549
[28] = drug 10 μM, 72 hours, WST-1, OD450 nm, read-out: cell viability (survival rate), HL-60
[29] = drug 10 μM, 72 hours, WST-1, OD450 nm, read-out: cell viability (survival rate), MKN-45
[30] = drug 10 μM, 72 hours, WST-1, OD450 nm, read-out: cell viability (survival rate), PC3
[31] = drug 10 μM, 72 hours, WST-1, OD450 nm, read-out: cell viability (survival rate), AGS
[32] = drug 10 μM, 72 hours, WST-1, OD450 nm, read-out: cell viability (survival rate), HepG2
[33] = drug 10 μM, 72 hours, WST-1, OD450 nm, read-out: cell viability (survival rate), HeLa
[34] = drug 10 μM, 72 hours, WST-1, OD450 nm, read-out: cell viability (survival rate), H1650
[35] = drug 10 μM, 72 hours, WST-1, OD450 nm, read-out: cell viability (survival rate), TSGH

| Structure (SMILES) | viability at 10 µM [1, 13] [%] | viability at 10 µM [2, 14] [%] | viability at 10 µM [3, 15] [%] | viability at 10 µM [4, 16] [%] | viability at 10 µM [5, 17] [%] | viability at 10 µM [6, 18] [%] | viability at 10 µM [7, 19] [%] | viability at 10 µM [8, 20] [%] | viability at 10 µM [9, 21] [%] | inhibition effect on different cancer cell lines (cancer cell lines) | viability at 10 µM [10, 22] [%] | viability at 10 µM [11, 23] [%] | viability at 10 µM [12, 24] [%] | viability at 10 µM [1, 25] [%] | viability at 10 µM [2, 26] [%] | viability at 10 µM [3, 27] [%] | viability at 10 µM [5, 28] [%] | viability at 10 µM [6, 29] [%] | viability at 10 µM [7, 30] [%] | viability at 10 µM [8, 31] [%] | other results |
| --- | --- | --- | --- | --- | --- | --- | --- | --- | --- | --- | --- | --- | --- | --- | --- | --- | --- | --- | --- | --- | --- |
| O=C(NC(Cc1cc(=O)[nH]c2ccccc12)C(=O)O)c1ccc(Cl)cc1 (stereo not drawn) [Rebamipide] | 39.1 | 81.1 | 28 | 84.9 | 100 | 97.4 | 82.2 | 89.6 | 95.3 | significant inhibition effect | 77.4 | 80.4 | 105 | – | – | – | – | – | – | – | – |
| O=C(O)Cc1ccccc1Nc1c(Cl)cccc1Cl [Diclofenac Potassium] | 76.3 | 51.5 | 81.7 | 85 | 96.3 | 40.5 | 63.3 | 91.4 | 107 | significant inhibition effect | 76.1 | 43.9 | 122 | – | – | – | – | – | – | – | – |
| CN1CCC(=C2c3ccccc3CCc3cccnc32)CC1 [Azatadine dimaleate] | – | – | – | 95.7 | – | – | – | – | – | significant inhibition effect | – | – | – | 79.7 | 40.7 | 123 | 113 | 83.4 | 104 | 67.1 | viability at 10 µM [9, 32]: 84.5%; viability at 10 µM [10, 33]: 72.2%; viability at 10 µM [11, 34]: 48.5%; viability at 10 µM [12, 35]: 78.5% |
| O=C(O)c1cccnc1Nc1cccc(C(F)(F)F)c1 [Niflumic acid] | – | – | – | 82 | – | – | – | – | – | significant inhibition effect | – | – | – | 86.9 | 50 | 99.2 | 132 | 68.7 | 111 | 40.5 | viability at 10 µM [9, 32]: 87.4%; viability at 10 µM [10, 33]: 51.9%; viability at 10 µM [11, 34]: 50.8%; viability at 10 µM [12, 35]: 66.8% |
| O=C(O)c1cn(-c2ccc(F)cc2)c2cc(N3CCNCC3)c(F)cc2c1=O [Sarafloxacin HCl] | – | – | – | 106 | – | – | – | – | – | significant inhibition effect | – | – | – | 107 | 97.8 | 98.6 | 112 | 75.3 | 80.9 | 88 | viability at 10 µM [9, 32]: 91.1%; viability at 10 µM [10, 33]: 81%; viability at 10 µM [11, 34]: 58.9%; viability at 10 µM [12, 35]: 122% |
| CN(C)c1ccc(C(=C2C=CC(=[N+](C)C)C=C2)c2ccc(N(C)C)cc2)cc1 [Crystal violet] | 46 | 32 | 37.5 | 62.3 | 37.3 | 44.8 | 31.8 | 52.7 | 70.3 | significant inhibition effect | 38.9 | 68.5 | 44.1 | – | – | – | – | – | – | – | – |
| COc1ccc(O)cc1 [Mequinol] | 74.4 | 63.8 | 118 | 85.2 | 112 | 103 | 68 | 57.2 | 95.6 | significant inhibition effect | 87.1 | 67.5 | 97 | – | – | – | – | – | – | – | – |
| Oc1c(Cl)cc(Cl)c2cccnc12 [Chloroxine] | 68.7 | 72.5 | 120 | 85.5 | 50.5 | 52.7 | 87.2 | 31.1 | 93.9 | significant inhibition effect | 71.7 | 77.1 | 62.7 | – | – | – | – | – | – | – | – |
| CCCCCCCCCCCCCCCCCCCCCCO [Docosanol (Abreva), Docosanol] | – | – | – | 89.4 | – | – | – | – | – | significant inhibition effect | – | – | – | 39.1 | 84.6 | 44 | 116 | 52.4 | 70.2 | 40.6 | viability at 10 µM [9, 32]: 83.6%; viability at 10 µM [10, 33]: 76.9%; viability at 10 µM [11, 34]: 69.3%; viability at 10 µM [12, 35]: 54.8% |
| NC(=O)C(c1ccccc1)(c1ccccc1)[C@@H]1CCN(CCc2ccc3c(c2)CCO3)C1 [Darifenacin HBr] | – | – | – | – | – | – | – | – | – | significant inhibition effect | – | – | – | 59.7 | 60.5 | 100 | 78.2 | 82.4 | 86.1 | 80.4 | viability at 10 µM ([4]; drug 10 μM, 72 hours, WST-1, OD450 nm, read-out: cell viability (survival rate), LoVo): 93.5%; viability at 10 µM [9, 32]: 81.6%; viability at 10 µM [10, 33]: 87.7%; viability at 10 µM [11, 34]: 126%; viability at 10 µM [12, 35]: 99.8% |
| COC(=O)Nc1nc2ccc(Sc3ccccc3)cc2[nH]1 [Fenbendazole (Panacur), Fenbendazole] | 55.8 | 40.6 | 40.9 | 52.9 | 66.6 | 40.3 | 42 | 29.9 | 76.1 | significant inhibition effect | 38.6 | 60.2 | 27.2 | – | – | – | – | – | – | – | – |
| CN(C)[C@@H]1C(O)=C(C(N)=O)C(=O)[C@@]2(O)C(O)=C3C(=O)c4c(O)cccc4[C@@](C)(O)[C@H]3[C@H](O)[C@@H]12 [Oxytetracycline dihydrate] | 34.2 | – | – | – | 99.3 | – | – | 71.7 | 93.4 | significant inhibition effect | 65.6 | 73.8 | – | – | – | – | – | – | – | – | cell viability (survival rate), A375 ([2]; human, 72 h, 10 µM): 72.5; cell viability (survival rate), A549 ([3]; human, 72 h, 10 µM): 22.1; cell viability (survival rate), LoVo ([4]; human, 10 µM): 47.0; cell viability (survival rate), MKN-45 ([6]; human, 72 h, 10 µM): 81.4; cell viability (survival rate), PC3 ([7]; human, 10 µM): 42.1; cell viability (survival rate), TSGH ([12]; human, 10 µM): 53.4 |

From patent US10105357B2, “Indication of antibiotic drugs for preparation of cancer inhibition pharmaceutical composition” (LAUNX BIOMEDICAL CO., LTD., priority 2014, dated 2018)
